Source: PubChem BioAssay (NCI)
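GI50 = concentration required for 50% inhibition of growth. At the TGI there is no net growth.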

Assays:
Assay in all cases: growth of human tumour cells (NCI), 384-well format; in the data active = GI50 below about 0.43 µM; inactive = the rest
MCF7 breast = system: MCF7 breast
SK-MEL-2 melanoma = system: SK-MEL-2 melanoma
SW-620 colon = system: SW-620 colon
TK-10 renal = system: TK-10 renal
OVCAR-3 ovarian = system: OVCAR-3 ovarian
NCI/ADR-RES ovarian = system: NCI/ADR-RES ovarian
NCI-H322M lung = system: NCI-H322M lung
HS 578T breast = system: HS 578T breast
SN12C renal = system: SN12C renal
HCC-2998 colon = system: HCC-2998 colon
UACC-257 melanoma = system: UACC-257 melanoma
HT29 colon = system: HT29 colon
CCRF-CEM leukemia = system: CCRF-CEM leukemia
ACHN renal = system: ACHN renal
T-47D breast = system: T-47D breast
KM12 colon = system: KM12 colon
SR leukemia = system: SR leukemia
OVCAR-4 ovarian = system: OVCAR-4 ovarian
COLO 205 colon = system: COLO 205 colon
SF-268 CNS = system: SF-268 CNS
RXF 393 renal = system: RXF 393 renal
NCI-H226 lung = system: NCI-H226 lung
MDA-MB-468 breast = system: MDA-MB-468 breast
HCT-15 colon = system: HCT-15 colon
IGROV1 ovarian = system: IGROV1 ovarian
RPMI-8226 leukemia = system: RPMI-8226 leukemia
UACC-62 melanoma = system: UACC-62 melanoma
NCI-H23 lung = system: NCI-H23 lung
786-0 renal = system: 786-0 renal
MALME-3M melanoma = system: MALME-3M melanoma
SF-539 CNS = system: SF-539 CNS
A498 renal = system: A498 renal
DU-145 prostate = system: DU-145 prostate
A549 NSCLC = system: A549 NSCLC
U251 glioblastoma = system: U251 glioblastoma
OVCAR-8 ovarian = system: OVCAR-8 ovarian
NCI-H460 NSCLC = system: NCI-H460 NSCLC
SNB-75 CNS = system: SNB-75 CNS
OVCAR-5 ovarian = system: OVCAR-5 ovarian
MOLT-4 leukemia = system: MOLT-4 leukemia
SF-295 CNS = system: SF-295 CNS
SK-MEL-5 melanoma = system: SK-MEL-5 melanoma
EKVX NSCLC = system: EKVX NSCLC
HL-60(TB) leukemia = system: HL-60(TB) leukemia
M14 melanoma = system: M14 melanoma
HOP-62 NSCLC = system: HOP-62 NSCLC
CAKI-1 renal = system: CAKI-1 renal
SNB-19 CNS = system: SNB-19 CNS
HOP-92 NSCLC = system: HOP-92 NSCLC
MDA-MB-231 breast = system: MDA-MB-231 breast
BT-549 breast = system: BT-549 breast
SK-MEL-28 melanoma = system: SK-MEL-28 melanoma
PC-3 prostate = system: PC-3 prostate
NCI-H522 lung = system: NCI-H522 lung
SK-OV-3 ovarian = system: SK-OV-3 ovarian
MDA-MB-435 melanoma = system: MDA-MB-435 melanoma

Nc1n[n+](=O)c2ccccc2n1O
> 100 µM: TGI (MCF7 breast) | TGI (SW-620 colon) | TGI (TK-10 renal) | TGI (OVCAR-3 ovarian) | TGI (NCI/ADR-RES ovarian) | TGI (NCI-H322M lung) | TGI (HS 578T breast) | TGI (SN12C renal) | TGI (HCC-2998 colon) | TGI (UACC-257 melanoma) | TGI (HT29 colon) | TGI (T-47D breast) | TGI (KM12 colon) | TGI (COLO 205 colon) | TGI (RXF 393 renal) | TGI (NCI-H226 lung) | TGI (HCT-15 colon) | TGI (IGROV1 ovarian) | TGI (786-0 renal) | TGI (SF-539 CNS) | TGI (A498 renal) | TGI (DU-145 prostate) | TGI (A549 NSCLC) | TGI (U251 glioblastoma) | TGI (OVCAR-8 ovarian) | TGI (OVCAR-5 ovarian) | TGI (SF-295 CNS) | TGI (EKVX NSCLC) | TGI (CAKI-1 renal) | TGI (SNB-19 CNS) | TGI (MDA-MB-231 breast) | TGI (SK-MEL-28 melanoma) | TGI (PC-3 prostate) | TGI (MDA-MB-435 melanoma)
24.8 µM: TGI (MOLT-4 leukemia)
44.1 µM: TGI (NCI-H522 lung)
73 µM: TGI (OVCAR-4 ovarian)
65.5 µM: TGI (HOP-92 NSCLC)
23.1 µM: TGI (MDA-MB-468 breast)
inactive: GI50 (MCF7 breast) 57.6 µM | GI50 (SK-MEL-2 melanoma) 42.2 µM | GI50 (SW-620 colon) 72.5 µM | GI50 (TK-10 renal) 69.8 µM | GI50 (OVCAR-3 ovarian) 35.1 µM | GI50 (NCI/ADR-RES ovarian) 51.4 µM | GI50 (NCI-H322M lung) > 100 µM | GI50 (HS 578T breast) 20 µM | GI50 (SN12C renal) 22.3 µM | GI50 (HCC-2998 colon) 35.8 µM | GI50 (UACC-257 melanoma) 68.2 µM | GI50 (HT29 colon) 69.7 µM | GI50 (CCRF-CEM leukemia) 20.5 µM | GI50 (ACHN renal) 27.2 µM | GI50 (T-47D breast) 24.1 µM | GI50 (KM12 colon) 41.7 µM | GI50 (SR leukemia) 4.04 µM | GI50 (OVCAR-4 ovarian) 24.5 µM | GI50 (COLO 205 colon) 35.8 µM | GI50 (SF-268 CNS) 24.3 µM | GI50 (RXF 393 renal) 36.8 µM | GI50 (NCI-H226 lung) 39.4 µM | GI50 (MDA-MB-468 breast) 6.96 µM | GI50 (HCT-15 colon) 32 µM | GI50 (IGROV1 ovarian) 36.7 µM | GI50 (RPMI-8226 leukemia) 13.3 µM | GI50 (UACC-62 melanoma) 20.6 µM | GI50 (NCI-H23 lung) 18 µM | GI50 (786-0 renal) 59.8 µM | GI50 (MALME-3M melanoma) 27.8 µM | GI50 (SF-539 CNS) 58.3 µM | GI50 (A498 renal) 38.7 µM | GI50 (DU-145 prostate) 43.5 µM | GI50 (A549 NSCLC) 47 µM | GI50 (U251 glioblastoma) 46.7 µM | GI50 (OVCAR-8 ovarian) 37.7 µM | GI50 (NCI-H460 NSCLC) 18.8 µM | GI50 (SNB-75 CNS) 20 µM | GI50 (OVCAR-5 ovarian) > 100 µM | GI50 (MOLT-4 leukemia) 12.3 µM | GI50 (SF-295 CNS) 26.1 µM | GI50 (SK-MEL-5 melanoma) 14.7 µM | GI50 (EKVX NSCLC) 33.1 µM | GI50 (HL-60(TB) leukemia) 20.2 µM | GI50 (M14 melanoma) 24.5 µM | GI50 (HOP-62 NSCLC) 22.5 µM | GI50 (CAKI-1 renal) 36.2 µM | GI50 (SNB-19 CNS) 48.2 µM | GI50 (HOP-92 NSCLC) 20.3 µM | GI50 (MDA-MB-231 breast) 70 µM | GI50 (BT-549 breast) 24.1 µM | GI50 (SK-MEL-28 melanoma) > 100 µM | GI50 (PC-3 prostate) 46.4 µM | GI50 (NCI-H522 lung) 11.9 µM | GI50 (SK-OV-3 ovarian) 17.7 µM | GI50 (MDA-MB-435 melanoma) > 100 µM
65.6 µM: TGI (M14 melanoma)
13.5 µM: TGI (SR leukemia)
46.5 µM: TGI (NCI-H23 lung)
34.3 µM: TGI (SK-MEL-5 melanoma)
47.5 µM: TGI (CCRF-CEM leukemia)
40.5 µM: TGI (HL-60(TB) leukemia)
90.5 µM: TGI (SK-MEL-2 melanoma)
81.4 µM: TGI (MALME-3M melanoma)
66.6 µM: TGI (HOP-62 NSCLC)
69.8 µM: TGI (ACHN renal)
73.5 µM: TGI (SF-268 CNS)
31.4 µM: TGI (RPMI-8226 leukemia)
70.5 µM: TGI (SK-OV-3 ovarian)
59.9 µM: TGI (UACC-62 melanoma)
61.6 µM: TGI (NCI-H460 NSCLC)
65.1 µM: TGI (BT-549 breast)
60.3 µM: TGI (SNB-75 CNS)
